In paper PMC11587510, “Aromatic Amino Acid Hydroxylases as Off-Targets of Histone Deacetylase Inhibitors” (ACS Chemical Neuroscience, 2024):
“And” between values parts separate entries of the source, which are not always exact repeats. Equal entries are not always repeated. Where two headings read alike, the source gives them in different places.

Tests used:
TPH1 = biological target: T1, TPH1 (Homo sapiens, UniProt P17752); test: Differential scanning fluorimetry (DSF) thermal stability assay; assay type: binding; settings: for Tm (°C) ± SD (°C), primary screen: 0.075 mg/mL TPH1, 0.5% DMSO, three independent measurements (a: duplicates); for Kd: estimated from DSF dose-response, 2% DMSO, read-out: apparent KD (μM), dose-response
T1 construct: doubly truncated human TPH1 (ΔNH102-ΔCOOH402); made in house; host or cells: E. coli BL21(DE3)
Procedure: A fluorescence-based thermal stability assay (differential scanning fluorimetry, DSF) was used for testing the effects of HDIs on the thermal stability of TPH1.
For initial high throughput screening (HTS), compounds were prepared at a concentration of 10 mM (in some cases, 5 mM) in 100% DMSO. Initial HTS screening was performed on TPH1 with and without compounds using a LightCycler 480 Real-Time PCR System (Roche Applied Science). TPH1 was diluted to 0.075 mg/mL in 50 mM Tris pH 8.0, 200 mM NaCl, 0.5 mM TCEP, and 5% glycerol with 5x SYPRO Orange. Compounds were added to a final concentration of 50 μM. Controls with 0.5% DMSO were performed on each 384-well microplate. Unfolding curves were recorded from 20 to 95 °C at a scan rate of 2 °C/min and monitored at excitation = 465 nm and emission = 610 nm. Selected hits were validated further by serial dilution from 250 μM to 122 nM, keeping the DMSO concentration constant at 2%.
DSF data were analyzed using HTSDSF Explorer.[55] Melting temperature (Tm) was calculated from the maximum value of the first derivative of the unfolding curve. ΔTm (Tm with compound–averaged Tm in DMSO controls) was plotted for all validated curves and a threshold of 2 °C was set (typically, cutoff at ΔTm = 3-fold the SD of the Tm of the DMSO control).
Preliminary binding constants (KD) were calculated by fitting data to the equation [drawing 1] where ΔH0 is the enthalpy of the unfolding of the protein in the presence of ligand ([L]), and R is the gas constant.

HDAC 1 = settings: cited from earlier work
human TPH2 = biological target: T2, human TPH2 (Homo sapiens, UniProt Q8IWU9); test: TPH2 enzyme activity assay (HPLC); assay type: biochemical; settings: best-fit IC50 (± SE), nonlinear regression; N.A. = no activity
T2 construct: Full-length human TH isoform 1 (TH1), human PAH, human TPH2, and doubly truncated human TPH1; MBP (cleaved yes); made in house; host or cells: E. coli BL21(DE3)
T2 sequence (Q8IWU9 1-490): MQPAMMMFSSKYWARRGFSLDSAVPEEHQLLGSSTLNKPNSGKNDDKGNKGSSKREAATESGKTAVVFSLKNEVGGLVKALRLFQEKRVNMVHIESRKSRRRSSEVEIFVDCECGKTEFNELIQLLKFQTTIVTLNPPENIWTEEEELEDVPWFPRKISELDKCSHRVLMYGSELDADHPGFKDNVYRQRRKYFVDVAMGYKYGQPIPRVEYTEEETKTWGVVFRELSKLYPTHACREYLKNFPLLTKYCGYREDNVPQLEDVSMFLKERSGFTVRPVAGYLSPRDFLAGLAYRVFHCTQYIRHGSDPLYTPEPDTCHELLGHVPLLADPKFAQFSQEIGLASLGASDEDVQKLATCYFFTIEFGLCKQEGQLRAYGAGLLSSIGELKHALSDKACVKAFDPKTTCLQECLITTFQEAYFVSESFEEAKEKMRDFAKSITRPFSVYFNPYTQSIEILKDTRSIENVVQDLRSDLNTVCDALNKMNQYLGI
Procedure: (§1) TPH1 enzymatic activity assays were performed with the selected hits from the DSF screening in the presence and absence of 50 μM of each compound. The final concentration of DMSO was 0.5% (v/v), and control experiments used 0.5% DMSO in the absence of ligand. Assays were performed in a standard reaction mixture containing 40 mM Hepes pH 7.0, 200 mM NaCl, 0.1 mg/mL catalase, 0.5 mg/mL BSA, 10 μM ferrous ammonium sulfate, and 30 μM L-tryptophan (L-Trp). Compounds were incubated with TPH1 (0.02 mg/mL) in the reaction mixture for 10 min on ice.

human PAH = biological target: T3, human PAH (Homo sapiens, UniProt P00439); test: PAH enzyme activity assay (HPLC, L-Tyr); assay type: biochemical; settings: best-fit IC50 (± SE), nonlinear regression; N.A. = no activity; read-out: IC50 (μM) PAH
T3 construct: Full-length human TH isoform 1 (TH1), human PAH, human TPH2, and doubly truncated human TPH1; made in house; host or cells: E. coli TB1
T3 sequence (P00439 1-452): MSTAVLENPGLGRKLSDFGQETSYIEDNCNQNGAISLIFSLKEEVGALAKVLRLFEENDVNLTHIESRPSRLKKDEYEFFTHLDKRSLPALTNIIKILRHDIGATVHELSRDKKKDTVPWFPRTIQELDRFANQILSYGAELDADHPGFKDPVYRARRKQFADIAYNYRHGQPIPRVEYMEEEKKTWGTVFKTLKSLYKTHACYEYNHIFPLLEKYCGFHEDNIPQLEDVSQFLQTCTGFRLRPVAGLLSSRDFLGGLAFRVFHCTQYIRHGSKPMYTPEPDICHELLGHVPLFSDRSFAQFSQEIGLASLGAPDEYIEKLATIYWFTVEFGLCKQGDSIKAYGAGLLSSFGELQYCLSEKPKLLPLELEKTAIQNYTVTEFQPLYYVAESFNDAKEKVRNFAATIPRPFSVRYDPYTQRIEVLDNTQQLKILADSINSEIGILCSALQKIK

HDAC 6 = settings: cited from earlier work
[1] = biological target: T4, doubly truncated human TPH1 (ΔNH102-ΔCOOH402) (Homo sapiens, UniProt P17752); test: TPH1 enzyme activity assay (HPLC, 5-OH-Trp); assay type: biochemical; settings: for IC50: best-fit IC50 (± SE), nonlinear regression, N.A. = no activity
T4 construct: doubly truncated human TPH1 (ΔNH102-ΔCOOH402); made in house; host or cells: E. coli BL21(DE3)
Procedure: as §1

human TH isoform 1 (TH1) = biological target: T5, human TH isoform 1 (TH1) (Homo sapiens, UniProt P07101); test: TH enzyme activity assay (HPLC, L-DOPA); assay type: biochemical; settings: best-fit IC50 (± SE), nonlinear regression; N.A. = no activity
T5 construct: Full-length human TH isoform 1 (TH1); His6-ZZ fusion partner (one of the two preparations only) (cleaved yes); made in house; host or cells: E. coli BL21(DE3) pLysS (pET3a) or BL21 CodonPlus (pET-ZZ-1a)
Procedure: The activity of purified PAH, TH, TPH1, and TPH2 was measured using high-performance liquid chromatography (HPLC) as previously described.[50],[56],[57]
TH activities were performed in a standard reaction mixture containing 40 mM Hepes (pH 7.0), 0.1 mg/mL catalase, 10 μM ferrous ammonium sulfate, and 50 μM L-Tyr. Compounds were incubated with TH (0.01 mg/mL) in the reaction mixture for 10 min on ice. The enzymatic reaction was initiated by adding 200 μM BH4 and 2 mM DTT (final concentrations) and stopped by precipitation with 2% (v/v) acetic acid in ethanol after 5 min at 37 °C. The product, L-DOPA, was quantified by HPLC utilizing a fluorescence monitor set at 281 and 314 nm for excitation and emission, respectively.
GraphPad Prism (version 10; La Jolla, CA) was used for analyzing the enzyme inhibition data.

HDAC 8 = settings: human recombinant HDAC, cited from earlier work
[2] = human recombinant HDAC, ref 1 (PMID: 26443078)

T1 sequence (P17752 102-402): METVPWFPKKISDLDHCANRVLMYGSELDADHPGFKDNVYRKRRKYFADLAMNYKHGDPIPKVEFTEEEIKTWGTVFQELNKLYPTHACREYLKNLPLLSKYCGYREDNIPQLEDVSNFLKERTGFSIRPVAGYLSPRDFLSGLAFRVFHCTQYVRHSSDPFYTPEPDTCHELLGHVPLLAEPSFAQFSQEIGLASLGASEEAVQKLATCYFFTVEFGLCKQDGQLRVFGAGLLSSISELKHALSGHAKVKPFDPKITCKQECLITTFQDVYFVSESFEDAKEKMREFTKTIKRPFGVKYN
T4 sequence (P17752 102-402, stated change not applied): as the sequence (P17752 102-402) above
T5 sequence (P07101 1-497 isoform P07101-3): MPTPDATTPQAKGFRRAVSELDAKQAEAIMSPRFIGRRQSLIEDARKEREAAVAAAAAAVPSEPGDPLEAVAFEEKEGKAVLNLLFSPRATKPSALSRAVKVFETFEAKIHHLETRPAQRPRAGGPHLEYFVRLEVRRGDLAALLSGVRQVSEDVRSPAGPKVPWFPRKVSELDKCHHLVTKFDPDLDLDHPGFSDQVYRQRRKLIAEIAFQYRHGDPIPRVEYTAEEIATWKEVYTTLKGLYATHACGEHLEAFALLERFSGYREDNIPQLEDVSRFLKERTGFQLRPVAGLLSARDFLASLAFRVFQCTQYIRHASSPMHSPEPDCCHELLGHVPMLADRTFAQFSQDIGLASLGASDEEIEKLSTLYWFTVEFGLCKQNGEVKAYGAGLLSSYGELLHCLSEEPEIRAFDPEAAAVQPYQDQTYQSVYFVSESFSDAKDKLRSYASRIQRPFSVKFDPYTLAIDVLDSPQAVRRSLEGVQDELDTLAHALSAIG

Row | ΔTm at 50 µM (TPH1; DSF, 50 μM compound, vs averaged Tm of 0.5% DMSO controls, read-out: ΔTm (°C) ± SD (°C), primary screen) | inhibition at 50 µM ([1]; compound 50 μM, 0.5% DMSO) | Structure (SMILES) | Tm (°C) ± SD (°C), primary screen (TPH1; DSF, 50 μM compound) | ΔTm (°C) ± SD (°C), primary screen (TPH1; DSF, 50 μM compound, vs averaged Tm of 0.5% DMSO controls) | Kd (TPH1) | HDAC 1 % inhibition @ 1 μM (HDAC 1; @ 1 μM, ref 4 (PMID: 34392190)) | IC50 (human TPH2) | IC50 (human PAH) | HDAC 6 % inhibition @ 1 μM (HDAC 6; @ 1 μM, ref 4 (PMID: 34392190)) | IC50 [1] | inhibition of TPH1 activity at 50 μM ([1]; compound 50 μM, 0.5% DMSO) | IC50 (human TH isoform 1 (TH1)) | IC50 (HDAC 8; ref 4 (PMID: 34392190)) | IC50 (HDAC 1; [2]) | IC50 (HDAC 6; [2]) | IC50 (HDAC 8; ref 1 (PMID: 26443078))
1 |  |  | O=C(NO)c1ccc(Cl)c(C(=O)Nc2ccc(Cl)cc2)c1 [EG22, 4-Chloro-3-(4-chlorophenylcarbamoyl)-N-hydroxybenzamide] | 59.4 ± 0.3 °C | 3.9 ± 0.2 °C | 15.2 µM | 20 ± 1% | 10.7 µM | 0.89 µM and 0.9 µM | 94 ± 4% | 35.8 µM | more than 50% | 14.7 µM | 0.18 ± 0.05 µM |  |  | 
2 | […] | > 50% | Cc1[nH]c2ccccc2c1CCNCc1ccc(/C=C/C(=O)NO)cc1 [panobinostat, reference compound] | 56.0 ± 0.0 °C |  | 15.6 µM |  | 43.6 µM | 0.57 µM and 0.6 µM |  | […] |  | 8.67 µM and 8.7 µM |  | […] | […] | […]
